The conditions of assay [1]: rat; cited from earlier work.
In assay [2] the test system is human osteoblasts. The assay is described as follows: Cellular proliferation test. It counts as cell-based. Particulars: for cells proliferation (number of cells, colorimetric test at 540 nm): human osteoblasts, medium without FCS with BSA, increasing doses, 5 days, FIG. 1 / FIG. 2. On the procedure: (§1) The differentiated human osteoblasts were prepared starting from bone fragments obtained during surgical operation following the procedure described in Calcif. Tissue Int. 62: 362–365, 1998; and in Calcif. Tissue Int. 37: 453–460, 1985.
(§2) In short, bone fragments were undertaken to enzymatic digestion with collagenase (1 mg/ml) diluted in phosphate buffer in order to remove fibroblasts, haematic endothelial cells or bone marrow cells, if any.
(§3) The fragments so cleaned were maintained in culture in presence of a medium containing 20% of foetal calf serum (FCS) to obtain osteoblasts population for explant.
(§4) The cells so obtained were characterised to verify their osteoblastic phenotype then used for the experiments.
The cellular proliferation test was done growing the cells in 96 well plates, in medium without FCS, and with bovine serum albumin (BSA).
The cells were exposed to increasing doses of L-carnitine fumarate and isovaleryl L-carnitine fumarate. The positive control group was constituted by cells growing in presence of FCS (15%).
Every 24 ore, for 5 days, samples from plates in culture were fixed with a solution of paraformaldehyde at 3%, the cells were stained with crystal-violet at 0.5%, washed to eliminate the excess of stain and a solution of sodium citrate 0.1 M in ethanol was added. The number of the cells contained in the wells was evaluated by colorimetric test at 540 nm.

For a further assay, the system named is osteocalcine. Particulars: mice, during formation of the bone matrix; cited from earlier work.
For assay [3], the system named is human osteoblasts. The assay is described as follows: Production of collagen by incorporation of 3H-proline. It counts as cell-based. The conditions noted are these: FIG. 3. On the procedure:
as §1, §2, §3, §4
The collagen production represents a method for the evaluation of the osteoblast activity.
This production was evaluated on semiconfluent cells grown on 24 wells plates, in medium without serum (FCS) containing 1 μCi/well of ^3H-proline, both in the wells of the control and in the wells where were present the tested compounds. After 4 hours of incubation in presence of the tracer the cells were lysed and undertaken to an extraction procedure (Journal of Bone and Mineral Research, 2000; Vol. 15(2); 188–97). […] The radioactivity of the cells, as index of the cells collagen synthesis, was evaluated with a beta-counter.

Where a name gives a salt, the structure may show the parent alone.

Regarding `C[N+](C)(C)CC(O)CC(=O)[O-]` (racemic) [D,L-carnitine], the bone calcium entry in assay [1] is reported as “increases the bone calcium”. For `C[N+](C)(C)C[C@H](O)CC(=O)[O-].O=C(O)/C=C/C(=O)O` [L-carnitine fumarate, reference compound], in the assay with human osteoblasts [2], the “cells proliferation (number of cells, colorimetric test at 540 nm)” value was “cells proliferation induced by L-carnitine fumarate”.

As to `C[N+](C)(C)C[C@H](O)CC(=O)[O-]` [L-carnitine], in the assay with osteocalcine, the “production of osteocalcine (index of better calcification)” value is “increase the production of osteocalcine”. In the case of `CC(=O)O[C@H](CC(=O)[O-])C[N+](C)(C)C` [acetyl L-carnitine], the “production of osteocalcine (index of better calcification)” value with osteocalcine is “reduces the production of this marker”.

As for `CC(C)CC(=O)O[C@H](CC(=O)[O-])C[N+](C)(C)C` [isovaleryl L-carnitine fumarate], the “cells proliferation compared with L-carnitine fumarate” value in the assay on human osteoblasts [2] (FIG. 1 versus FIG. 2) is recorded as “induces cells proliferation (FIG. 1) in a more potent way”. Also, the “cellular proliferation activity at 10^-3 M compared with L-carnitine fumarate at 10^-2 M” value in the assay with human osteoblasts [2] (dose 10 times lower than that of L-carnitine fumarate) is “has the same cellular proliferation activity”. In addition, in the assay on human osteoblasts [2], the “cells proliferation (number of cells, colorimetric test at 540 nm)” value is “promotes cells proliferation”. In addition, the “production of collagen respect to the same doses of L-carnitine fumarate” value with human osteoblasts [3] (Student t test) is given as “favouring activity for the production of collagen in a significant way”. Also, the “production of collagen (3H-proline incorporation) respect to the control sample” value in the assay on human osteoblasts [3] (semiconfluent cells, medium without serum, 4 hours of incubation with tracer) is listed as “increases the production of collagen in an higher way respect to the control sample”.

The values are drawn from US7084174B2, “Administration of isovaleryl L-carnitine to stimulate osteoblastic activity” (Sigma-Tau Industrie Farmaceutiche Riunite S.p.A., priority 2000, dated 2006).
